# Patent US10039733B2, “Compositions, method, and kits for treating pulmonary conditions” (NuSirt Sciences, Inc., priority 2013, dated 2018)
# How the values were obtained:
# IL1-β = IL1-β secretion from MLEC (ELISA); format: cell-based, mouse; conditions: MLEC treated directly; theophylline 1 μM, leucine 0.5 mM, resveratrol 200 nM; FIG. 4
# Source text: (§1) Interleukin 1-β, eotaxin, and interleukin 6 were all measured via enzyme-linked immunosorbent assay using specific antibodies for each cytokine (Abcam, Cambridge, Mass.) and a horseradish peroxidase-based second antibody detection system, with chromogenic detection at 450 nm using a microplate reader (Synergy HT, BioTek Instruments, Winooski, Vt.).
# eotaxin = eotaxin secretion from MLEC (ELISA); format: cell-based, mouse; conditions: MLEC treated directly; theophylline 1 μM, leucine 0.5 mM, resveratrol 200 nM; FIG. 5
# Source text: as §1
# IL 6 [1] = experiment: IL 6 secretion from MLEC (ELISA); format: cell-based, mouse; conditions: positive control, FIG. 8
# Procedure: (§2) Cells were grown in Dulbecco's modified eagle's medium (DMEM) containing a growth factor supplement (Cell Biologics #M1 166) which included 5% fetal bovine serum (FBS), heparin, EGF, hydrocortisone, L-glutamine and antibiotics at 37° C. in 5% CO2.
# as §1
# (§3) Following treatment, western blots or ELISA assays were performed on the MLEC to determine the level of various indicators of airway diseases, such as NFκB protein expression, eotaxin secretion, IL1-β secretion, cellular IL6 content or secretion, adiponectin receptor 1 protein expression, and adiponectin receptor 2 protein expression.
# IL 6 [2] = experiment: cellular IL 6 content in MLEC (ELISA); format: cell-based, mouse; conditions: MLEC treated directly; theophylline 1 μM, leucine 0.5 mM, resveratrol 200 nM; FIG. 7
# Procedure: as §2, §1, §3
# [3] = tested on: OVA-induced asthmatic mice; experiment: BALF cellularity by flow cytometry in OVA-induced asthma; format: in vivo, Balb/c mice; conditions: theophylline 10 mg/kg IP, baseline 12 g leucine diet
# Procedure: The interactive effects of leucine and theophylline was evaluated in sixty young adult female Balb/c mice that were randomized to the following six groups (n=10/group):
# Group 1 was an untreated control group that was administered a diet containing a baseline level of leucine at 12 g of leucine/day.
# Group 2 was a positive control group that was administered dexamethasone via IP injection and a diet containing a baseline level of leucine at 12 g of leucine/day.
# Group 3 was administered a diet containing a high level of leucine (diet containing leucine at 12 g/day for days 0-13 and 24 g/day beginning on day 14) and no theophylline or dexamethasone.
# Group 4 was administered sub-therapeutic level of theophylline (1 mg/kg theophylline, 10% of therapeutic level) via IP injection and a high leucine diet (diet containing leucine at 12 g/day for days 0-13 and 24 g/day beginning on day 14). […]
# Animals were sacrificed on day 28, subjected to bronchial alveolar lavage and the lavage fluid (BALF, 2 mL) and lungs collected. Airway inflammation was evaluated by assessing cellularity of BALF via flow cytometer; parameters used for cellular differentiation were sized granularity, autofluorescence and the expression of the following markers: CD45, Gr-1, CD11b, CCR3, B220 and CD3. […]
# NFκB = NFκB protein expression by Western blot in directly treated MLEC; conditions: theophylline 1 μM, leucine 0.5 mM, resveratrol 200 nM, FIG. 1
molecule,measurement,setting,value
TNFα,IL1-β secretion,IL1-β,significant increase
same,eotaxin secretion into the media,eotaxin,no significant effect
same,IL 6 secretion,IL 6 [1],significant increase
Cn1c(=O)c2[nH]cnc2n(C)c1=O [theophylline],IL1-β secretion,IL1-β,no significant independent effect
same,cellular expression of IL 6,IL 6 [2],unaffected
same,eosinophil number in BALF,[3]; FIG. 15,modest significant decreases
same,T-cell number in BALF,"[3]; trend not significant (0.05<p<0.1), FIG. 16",modestly reduced
same,NFκB protein expression relative to control,NFκB,no independent effect
